The source of these data is patent publication US5484793A, “Compounds derived from 6-azaindoles as ligands of the benzodiazepine receptor and medicaments containing them” (Centre National de la Recherche Scientifique (CNRS), priority 1991, dated 1996).

The target of data set [1] is benzodiazepine receptor. The following applies: in vitro; cited from earlier work.
For data set [2], the target named is benzodiazepine receptor. Kind of data set: In vitro affinity for the benzodiazepine receptor on rat cortex membrane. The format is binding. On the procedure: A--In Vitro Tests on Cortex Membrane
The compounds of Examples 1 to 14 were tested on rat cortex membrane in order to determine their affinity for the benzodiazepine receptor.

In data set [3] the test system is GABA receptor/benzodiazepine receptor/chloride channel complexes. Kind of data set: Electrophysiological test on Xenopus oocyte (injected with chicken optical lobe mRNA), pharmacological profile. The format is cell-based. The following applies: for change of the potential difference (PD) of the oocyte: 10^-6 M, in 10^-5 M GABA bath; for pharmacological profile at the benzodiazepine receptor: Xenopus oocyte. The source says: B--Pharmacological Property of the Compound of Example 1 Determination of the Pharmacological Profile
This study consists of an electrophysiological test on Xenopus oocyte. The cells of chicken optical lobes fortuitously have a good response to GABA. The total RNAs are extracted therefrom and passed through an oligo(dT) affinity column, thus making it possible to separate the crude messenger RNAs therefrom, because the latter have a poly(A) end tail which will combine by complementarity with the oligo(dT) residues of the column. These messenger RNAs will then be injected into a Xenopus oocyte, which is only a one and only cell. These oocytes will then be incubated and, in two days, the messenger RNAs will be expressed and will thus, by virtue of the cell machinery of the oocyte, have produced GABA receptor/benzodiazepine receptor/chloride channel complexes. These large protein entities will then migrate in the cell and will reach the membrane, thus making it possible for this receptor and the transmembrane ion channel which is combined with it to take its place.
The oocyte is then placed in a 10^-5 M GABA bath in Ringer solution and two microelectrodes A and B are introduced therein, a third microelectrode being placed outside the cell to act as reference. Microelectrode A will be used to measure the potential difference (PD) between the interior and the exterior of the oocyte. A PD of 60 mV is imposed on the oocyte and the microelectrode B will be used to maintain this desired PD.
By perfusing an agonist such as diazepam, the latter and the GABA present in the medium will exert an allosteric effect at the level of the receptor with, as corollary, opening of the ion channel. There will therefore be entry of chloride into the oocyte and the PD will greatly increase. On the other hand, an inverse agonist such as β-CCM will cause a reduction in the binding of the GABA to the receptor with, as consequence, a reduction in the time of opening of the chloride channel and a lower PD.
An antagonist will occupy the binding site of the benzodiazepine receptor but will have no effect on the binding of the GABA. The opening of the chloride channel will therefore not be disturbed and the PD will not vary.

Data set [4] deals with mice belonging to the ABP/Le strain. Nature of the data set: In vivo convulsant properties in ABP/Le mice. Further details: species or system mouse. The conditions noted are these: 20 mg/kg intraperitoneally, 14 mice, observation after 30 minutes. The procedure:
Compound 1 was tested first for its convulsant properties. The test was carried out on 14 mice (5 males and 9 females) aged two months belonging to the ABP/Le strain. This particular strain is very sensitive to convulsions induced by β-carbolines. Compound 1 was administered intraperitoneally at a dose of 20 mg/kg and observation took place after 30 minutes. […] The compound is therefore not convulsant.

A further data set deals with female Swiss mice. Kind of data set: Passive avoidance test with learning in a single test (memory). The conditions noted are these: 20 mg/kg intraperitoneal. The format is in vivo, mouse. On the procedure:
Compound 1 was then tested on learning. This test, passive avoidance with learning in a single test, was carried out on 30 female Swiss mice aged two months. Compound 1 was administered to 15 mice at a dose of 20 mg/kg, the other 15 receiving an injection of physiological serum.
The equipment consists of a white box connected to a black box by a door. The white box is lit by a 100 W lamp placed at a distance of 25 cm and the black box, into which the mouse will spontaneously go because she feels safe in the darkness, contains an electrified metal floor. The boxes are coated with the smell of mice by an animal placed inside before each of the two series of 15 mice. […]
Ten minutes before learning, the marked mice receive an intraperitoneal injection of physiological serum or of Compound 1. […] The mice were then placed one by one in the illuminated white box and the arrival time in the black box is recorded. […]
After 24 hours, the avoidance test takes place: the mouse is placed in the white box and whether or not the mouse enters the black box in three minutes is recorded without any electrical shock being caused. If the mouse enters the black box in less than three minutes, the molecule tested has not improved the acquisition of the information "black box=electric shock" but if the time recorded is greater than three minutes, the molecule is assumed to have acted.

The test system of a further data set is man. The conditions noted are these: cited from earlier work.
Data set [5] deals with benzodiazepine receptor. The following applies: cited from earlier work.
The conditions of data set [6]: in vivo (anxiolytic, anticonvulsant, and the like); cited from earlier work.
In data set [7] the target is central receptors of benzodiazepines. The following applies: in vitro, rat brain; read-out: IC50 at central benzodiazepine receptors; cited from earlier work.
The subject of the next data set is mice. The following applies: facilitating convulsions caused by other agents such as pentylenetetrazole; cited from earlier work.
For data set [8] the following is noted: in vivo; cited from earlier work.
The conditions of data set [9]: in vivo; cited from earlier work. The source holds these as a separate data set.

As usually defined, the IC50 is the concentration needed to halve the response being measured.

Where two headings read alike, the source gives them in different places.

In the case of `CCOC(=O)c1cc2cc(C(=O)OCC)[nH]c2cn1` [2,5-dicarbethoxy-6-azaindole], the IC50 on benzodiazepine receptor [1] was 84000 nM.

`COC(=O)c1cc2c(COCc3ccccc3)c[nH]c2cn1` [Example 1, Methyl 3-Benzyloxymethyl-6-Azaindole-5-Carboxylate] gave an IC50 against benzodiazepine receptor [2] of 750 nM. Also, in data set [3], the “change of the potential difference (PD) of the oocyte” value (from here on “change of the potential difference”) is “slight reduction of the PD” and the “pharmacological profile at the benzodiazepine receptor” value was “partial inverse agonist”. Besides, in data set [4], the convulsions entry is “None of the mice showed the least convulsion”. Also, the “memory-enhancing effect during the passive avoidance test” value in the data set on female Swiss mice is recorded as “memory-enhancing effect of the compound during the passive avoidance test with learning in a single test has therefore been revealed”. The “animals treated with the molecule that learnt to avoid the electric shock” value with female Swiss mice (24 hours) amounted to 75%.

With `COCc1c[nH]c2cnc(C(=O)OC)cc12` [Example 2], it took 1500 nM to reach half-maximal inhibition at benzodiazepine receptor [2] (IC50).

In turn, `COC(=O)c1cc2c(COCc3ccccc3F)c[nH]c2cn1` [Example 3] showed an IC50 against benzodiazepine receptor [2] of 65 nM.

`COC(=O)c1cc2c(COCc3cccc(F)c3)c[nH]c2cn1` [Example 4] came in with an IC50 on benzodiazepine receptor [2] of 100 nM.

Take `COC(=O)c1cc2c(COCc3ccc(F)cc3)c[nH]c2cn1` [Example 5]: the IC50 against benzodiazepine receptor [2] was found to be 75 nM.

The molecule `COC(=O)c1cc2c(COCc3ccccc3[N+](=O)[O-])c[nH]c2cn1` [Example 6] came in with an IC50 on benzodiazepine receptor [2] of 1200 nM.

Take `COC(=O)c1cc2c(COCc3cccc([N+](=O)[O-])c3)c[nH]c2cn1` [Example 7]: the midpoint of inhibition at benzodiazepine receptor [2], the IC50, lay at 1300 nM.

`COC(=O)c1cc2c(COCc3ccc([N+](=O)[O-])cc3)c[nH]c2cn1` [Example 8]: the concentration for half-maximal inhibition (IC50) at benzodiazepine receptor [2] worked out at 300 nM.

Molecule `COC(=O)c1cc2c(COCc3cccc(OC)c3)c[nH]c2cn1` [Example 9] yielded an IC50 against benzodiazepine receptor [2] of 10000 nM.

Regarding `COC(=O)c1cc2c(COCCc3ccccc3)c[nH]c2cn1` [Example 10], the midpoint of inhibition against benzodiazepine receptor [2], the IC50, lay at 8 nM.

Molecule `COC(=O)c1cc2c(COCC=Cc3ccccc3)c[nH]c2cn1` [Example 11] came in with an IC50 against benzodiazepine receptor [2] of 150 nM.

On to `O=C(Nc1ccccc1C(=O)O)c1cc2cc[nH]c2cn1` [Example 12, 5-Phenylamido-6-Azaindole-2'-Carboxylic Acid], for which, at benzodiazepine receptor [2], the IC50 amounted to 300 nM.

For `O=C(Nc1ccccc1)c1cc2cc[nH]c2cn1` [Example 13], it took 7000 nM to reach half-maximal inhibition against benzodiazepine receptor [2] (IC50).

`O=C(O)c1cccc(NC(=O)c2cc3cc[nH]c3cn2)c1` [Example 14]: on benzodiazepine receptor [2], inhibition was half-maximal at 5500 nM (IC50).

As to `O=C(O)c1ccc(NC(=O)c2cc3cc[nH]c3cn2)cc1` [Example 15], the IC50 against benzodiazepine receptor [2] came to 2300 nM.

As for `CCOC(=O)c1ncn2c1CN(C)C(=O)c1cc(F)ccc1-2` [Flumazenil], the “memory-enhancing properties in man” value with man is “memory-enhancing properties were revealed”. Besides, in the data set on benzodiazepine receptor [5], the “functional class at the benzodiazepine receptor” value (“functional class” for short) is given as “antagonists of the benzodiazepine receptor”.

`CCOC(=O)c1ncc2[nH]c3cccc(OCc4ccccc4)c3c2c1COC` [ZK 91296]: the “pharmacological profile at the benzodiazepine receptor” value in [3] was “partial agonist”. For the same molecule, the “in vivo properties compared with diazepam” value in data set [6] is “properties analogous to those of diazepam in vivo (anxiolytic, anticonvulsant, and the like)”.

In the case of `CCOC(=O)c1ncc2[nH]c3ccc(OCc4ccccc4)cc3c2c1COC` [ZK 93423], in [6], the “in vivo properties compared with diazepam” value is “properties analogous to those of diazepam in vivo (anxiolytic, anticonvulsant, and the like)”.

`CCOC(=O)c1ncc2[nH]c3cccc(OC(C)C)c3c2c1C` [ZK 93426]: the “memory-enhancing properties in man” value in the data set on man is listed as “memory-enhancing properties were revealed”. Besides, the “functional class” value with benzodiazepine receptor [5] is “antagonists of the benzodiazepine receptor”.

For `CN1C(=O)CN=C(c2ccccc2)c2cc(Cl)ccc21` [diazepam], the “change of the potential difference” value in data set [3] is “great increase”.

For the molecule `CCOC(=O)c1cc2c(cn1)[nH]c1ccccc12` [β-CCE, ethyl ester of β-carboline-3-carboxylic acid], the IC50 in data set [7] is 4 nM. Also, the proconvulsant effect entry with mice is “proconvulsant in mice”.

As to `COC(=O)c1cc2c(cn1)[nH]c1ccccc12` [β-CCM], the “change of the potential difference” value in data set [3] is listed as “significant reduction”. Besides, the “effect on learning and memory” value in [8] is “positive effect on learning and memory”. In addition, in [9], the convulsant activity result is on record as “highly convulsant activity”. For the same molecule, the “functional class” value in the data set with benzodiazepine receptor [5] was “inverse agonists of the benzodiazepine receptor”.
